According to patent US4055658A, “Cyanomethylphenethanolamines” (Mead Johnson & Company, priority 1976, dated 1977):
Read-outs that look alike come from different tables or passages of the source.

What was measured:
[1] = system: guinea pig trachea; test: Effect on spontaneous tone of guinea pig tracheal chain preparations; details: Cavia porcellus; in vitro, bath concentration; read-out: effective bath concentration (EC) providing a 50% decrease in the spontaneous tone of the guinea pig trachea
Description: (§1) Two in vitro test systems particularly useful in determining selective beta stimulant activity are: (1) effect on spontaneous tone of guinea pig tracheal chain preparations as a measure of relaxant effect on airway smooth muscle, and (2) effect on force and rate of spontaneously beating right atria of the guinea pig as a measure of beta-stimulant effect on cardiac muscle. If a beta-adrenergic agent exerts an effect on spontaneous tone of guinea pig trachea at a concentration lower than is required to affect heart force and rate, there is a positive separation ratio and the agent is considered to have bronchodilator activity with minimal cardiac stimulation. Thus, a comparison of the test agent with standard beta-stimulants such as isoproterenol or other beta-adrenergic agents can be made and relative bronchial selectivity determined.

[2] = system: guinea pig right atria; test: Effect on force and rate of spontaneously beating right atria of the guinea pig; details: Cavia porcellus, in vitro
Description: as §1

[3] = system: methacholine-induced bronchoconstriction; test: Methacholine-induced bronchoconstriction in anesthetized rat; assay type: in vivo; details: intraduodenal
Protocol: (§2) In the rat, transient bronchoconstriction is induced with a short-lasting intravenous (i.v.) infusion of methacholine to obtain a control value and at various times thereafter following intraduodenal (i.d.) administration of the test drug. Doses of test drug blocking methacholine induced bronchoconstriction are determined. In the dog, sustained bronchoconstriction is induced by continuous i.v. infusion of serotonin and doses of test drug necessary to reverse the bronchoconstriction are determined. In both animal models, measurements of cardiovascular effects from test drug is made simultaneously with the determination of the dose reversing bronchoconstriction. These in vivo comparisons are considered particularly significant since the bronchoconstriction induced resembles asthma and intraduodenal drug dosing of the anesthetized animal (i.e., rat) is similar to oral administration to a conscious animal. In the rat, 2-hydroxy-5-[1-hydroxy-2-[(1,1-dimethyl-2-phenylethyl)animo]ethyl]benzeneacetonitrile hydrochloride at a dose of 0.5 mg./kg. and 2.0 mg./kg. of body weight antagonizes methacholine-induced bronchoconstriction by 33.5 ± 5.2% and 72.3 ± 4.0%, respectively.

[4] = system: serotonin-increase pulmonary airway resistance; test: Serotonin-induced sustained bronchoconstriction in anesthetized dog; assay type: in vivo
Protocol: as §2

[5] = system: heart rate; test: Cardiovascular effect (heart rate) measured simultaneously in the rat model; assay type: in vivo; details: 0.5 and 2.0 mg./kg.
Protocol: as §2

[6] = system: heart rate; test: Cardiovascular effect (heart rate) measured simultaneously in the dog model; assay type: in vivo; details: 0.125 and 0.5 mg./kg.
Protocol: as §2

CC(C)(Cc1ccccc1)NCC(O)c1ccc(O)c(CC#N)c1.Cl (stereo not drawn) [2-Hydroxy-5-[1-hydroxy-2-[(1,1-dimethyl-2-phenylethyl)amino]ethyl]benzeneacetonitrile Hydrochloride] was tested, and the EC50 [1] was 0.0055 ± 0.0008 µg/mL, the EC50 ([2]; force, read-out: EC50 increasing the force of guinea pig right atria) was 0.16 ± 0.028 µg/mL and the EC50 ([2]; rate, read-out: EC50 increasing the rate of guinea pig right atria) was 0.33 ± 0.1 µg/mL. The “antagonism of methacholine-induced bronchoconstriction” value ([3]; 0.5 mg./kg. of body weight) was 33.5 ± 5.2%, the “antagonism of methacholine-induced bronchoconstriction” value ([3]; 2.0 mg./kg. of body weight) was 72.3 ± 4.0% and the “reduction of serotonin-increase pulmonary airway resistance” value ([4]; 0.125 mg./kg. body weight) was 49.7 ± 13.4%. The “reduction of serotonin-increase pulmonary airway resistance” value ([4]; 0.5 mg./kg. body weight) was 96.7 ± 12.3%, the “effect on heart rate at bronchodilating doses” value [5] was “without appreciably affecting heart rate” and the “effect on heart rate at bronchodilating doses” value [6] was “without appreciably affecting heart rate”.
